Here are results for 17 molecules from patent US12286443B2, “Bycyclic JAK inhibitors and uses thereof” (Insilico Medicine IP Limited, priority 2019, dated 2025).

As a reminder, the IC50 is the concentration that inhibits the measured activity by half.

One assay concerns Hut-78 cells. The experiment in a line: Inhibition in Hut-78 cells (IL-2 stimulated, HTRF). The assay is classed as cell-based. Conditions: Homo sapiens. On the procedure:
Exemplary compounds were assayed to determine potency in inhibiting Hut-78 cells by determining IC50 values.
Hut-78 cells were cultures in IMDM+20% FBS medium. Cells were maintained in log phase before the assay. Cell pellets were collected and resuspended in serum-free and phenol-free RPMI 1640 medium. 40,000 cells/well (10 μL) were seeded in each well of a 384-well plate and incubated with and without compound for 2 hours at 37° C. and 5% C02. IL-2 was added (2 μL, final concentration 100 ng/mL) and the mixture was incubated for 10 min. Cells were lysed by adding 4 μL labeled antibodies and the mixture was incubated overnight. The plate was read using the HTRF protocol on an Envision plate reader. The data was analyzed using XL-fit software (Supplier: ID business solutions Ltd.; Software version: XL fit 5.0). Inhibition %=(Max−Sample value)/(Max−Min)*100.
In the table, “A” indicates an IC50 of less than 0.5 μM, “B” indicates an IC50 range from 0.5 μM to 1 μM; and “C” indicates an IC50 range from 1 μM to 10 μM. Also, “na” indicates data is not available.
In general terms: In TR-FRET formats the signal depends on donor and acceptor labels being close together.

The target in the next assay is T1, JAK3 (Homo sapiens, UniProt P52333).
T1 construct: purchased Invitrogen PV4080
T1 sequence (P52333 1-1124): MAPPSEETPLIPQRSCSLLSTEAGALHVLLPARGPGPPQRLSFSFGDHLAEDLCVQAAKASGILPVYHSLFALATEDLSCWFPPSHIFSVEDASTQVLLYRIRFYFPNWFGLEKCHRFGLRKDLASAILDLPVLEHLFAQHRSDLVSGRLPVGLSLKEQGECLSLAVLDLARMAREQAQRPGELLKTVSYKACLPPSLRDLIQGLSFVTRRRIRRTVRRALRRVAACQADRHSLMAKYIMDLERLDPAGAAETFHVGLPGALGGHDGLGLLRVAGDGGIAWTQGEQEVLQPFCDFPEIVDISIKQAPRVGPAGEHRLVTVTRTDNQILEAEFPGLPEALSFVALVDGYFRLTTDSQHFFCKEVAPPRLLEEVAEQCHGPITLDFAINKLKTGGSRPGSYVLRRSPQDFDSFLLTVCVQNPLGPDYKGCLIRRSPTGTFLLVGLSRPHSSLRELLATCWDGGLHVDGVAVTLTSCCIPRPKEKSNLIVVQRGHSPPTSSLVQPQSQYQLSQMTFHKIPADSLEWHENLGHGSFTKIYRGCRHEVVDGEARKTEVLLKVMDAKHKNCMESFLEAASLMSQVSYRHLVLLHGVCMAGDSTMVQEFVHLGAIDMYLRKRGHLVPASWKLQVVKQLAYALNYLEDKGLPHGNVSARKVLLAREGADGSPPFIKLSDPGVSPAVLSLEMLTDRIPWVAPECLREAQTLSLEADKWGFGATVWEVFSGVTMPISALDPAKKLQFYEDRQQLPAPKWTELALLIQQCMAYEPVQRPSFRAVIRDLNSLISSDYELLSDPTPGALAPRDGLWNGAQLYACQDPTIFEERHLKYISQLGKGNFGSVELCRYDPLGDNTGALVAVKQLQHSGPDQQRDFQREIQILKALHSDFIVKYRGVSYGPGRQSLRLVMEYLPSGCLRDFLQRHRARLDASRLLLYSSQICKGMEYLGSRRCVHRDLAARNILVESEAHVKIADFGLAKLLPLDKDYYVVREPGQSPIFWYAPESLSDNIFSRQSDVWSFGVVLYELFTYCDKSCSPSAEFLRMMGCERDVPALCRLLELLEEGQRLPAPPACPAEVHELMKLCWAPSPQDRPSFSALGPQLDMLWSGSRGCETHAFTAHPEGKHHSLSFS
The assay is described as follows: Inhibition of JAK3 kinase, LANCE Ultra TR-FRET assay. The assay is classed as biochemical. Conditions: 2x ATP 8 μM, 15 min pre-incubation, 90 min reaction, 23° C. The procedure, abridged:
(§1)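 Enzyme (JAK1 2 nM, […], TYK2 4 nM) preincubated 15 min with compound and 50 nM ULight-JAK-1 peptide, then ATP added (2× stocks: 76, 24, 8, 30 μM respectively); 90 min at 23 °C, pH 7.5. Eu-anti-phosphotyrosine TR-FRET 665/615 ratio; IC50 from 4-parameter fit, 11-point duplicates.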

A further assay addresses T2, TYK2 (Homo sapiens, UniProt P29597).
T2 construct: purchased Invitrogen PR8440C
The assay is described as follows: Inhibition of TYK2 kinase, LANCE Ultra TR-FRET assay. Type of assay: biochemical. Conditions: 4 nM TYK2, 2x ATP 30 μM, 15 min pre-incubation, 90 min reaction, 23° C., read-out: tyk IC50. An outline of the steps:
as §1

The target of the next assay is T3, JAK2 (Homo sapiens, UniProt O60674).
T3 construct: purchased Invitrogen PV4210
T3 sequence (O60674 whole entry): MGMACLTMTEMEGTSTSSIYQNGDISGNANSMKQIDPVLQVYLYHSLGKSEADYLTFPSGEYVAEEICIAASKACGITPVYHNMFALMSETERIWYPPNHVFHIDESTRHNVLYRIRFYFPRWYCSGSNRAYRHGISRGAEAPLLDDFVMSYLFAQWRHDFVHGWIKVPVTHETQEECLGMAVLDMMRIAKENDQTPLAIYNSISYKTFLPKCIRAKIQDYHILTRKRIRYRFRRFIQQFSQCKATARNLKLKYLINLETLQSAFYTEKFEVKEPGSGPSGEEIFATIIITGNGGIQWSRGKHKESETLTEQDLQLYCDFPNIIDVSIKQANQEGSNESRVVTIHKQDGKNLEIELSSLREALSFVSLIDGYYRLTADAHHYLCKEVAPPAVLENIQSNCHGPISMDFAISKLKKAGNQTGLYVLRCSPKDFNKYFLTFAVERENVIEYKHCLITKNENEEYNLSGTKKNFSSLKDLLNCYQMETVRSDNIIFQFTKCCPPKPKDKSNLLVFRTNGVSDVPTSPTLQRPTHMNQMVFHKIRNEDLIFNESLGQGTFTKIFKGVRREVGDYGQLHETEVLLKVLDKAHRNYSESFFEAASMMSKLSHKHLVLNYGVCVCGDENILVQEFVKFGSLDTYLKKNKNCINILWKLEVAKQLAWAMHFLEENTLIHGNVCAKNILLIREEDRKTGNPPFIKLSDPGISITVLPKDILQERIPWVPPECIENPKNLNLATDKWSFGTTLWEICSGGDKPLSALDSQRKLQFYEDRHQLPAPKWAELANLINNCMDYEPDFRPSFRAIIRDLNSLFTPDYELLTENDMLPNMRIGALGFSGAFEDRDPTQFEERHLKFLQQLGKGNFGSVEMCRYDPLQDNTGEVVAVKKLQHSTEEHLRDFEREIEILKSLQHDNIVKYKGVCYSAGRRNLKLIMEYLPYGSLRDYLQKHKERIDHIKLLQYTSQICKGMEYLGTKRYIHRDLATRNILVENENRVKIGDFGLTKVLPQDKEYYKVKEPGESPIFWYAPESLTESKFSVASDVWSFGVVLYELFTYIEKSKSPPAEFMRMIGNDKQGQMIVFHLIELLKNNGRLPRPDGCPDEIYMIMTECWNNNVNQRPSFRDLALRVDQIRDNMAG
The assay is described as follows: Inhibition of JAK2 kinase, LANCE Ultra TR-FRET assay. The assay is classed as biochemical. Conditions: 2x ATP 24 μM, 15 min pre-incubation, 90 min reaction, 23° C. The procedure, abridged: as §1

Another assay has as its target T4, JAK1 (Homo sapiens, UniProt P23458).
T4 construct: purchased Invitrogen PV4775
The assay is described as follows: Inhibition of JAK1 kinase, LANCE Ultra TR-FRET assay. The assay is classed as biochemical. Conditions: 2 nM JAK1, 2x ATP 76 μM, 15 min pre-incubation, 90 min reaction, 23° C. An outline of the steps: as §1

Setting [1] is: HuT78, compound 2 hours at 37° C., then IL-2 100 ng/mL 10 min, HTRF, read-out: Hut-78 cells IC50.

Molecules are shown by their SMILES. Like-named read-outs stand apart in the source and are kept apart here. Where only a bound is given, the exact number is not on record here.

T4 sequence (P23458 whole entry): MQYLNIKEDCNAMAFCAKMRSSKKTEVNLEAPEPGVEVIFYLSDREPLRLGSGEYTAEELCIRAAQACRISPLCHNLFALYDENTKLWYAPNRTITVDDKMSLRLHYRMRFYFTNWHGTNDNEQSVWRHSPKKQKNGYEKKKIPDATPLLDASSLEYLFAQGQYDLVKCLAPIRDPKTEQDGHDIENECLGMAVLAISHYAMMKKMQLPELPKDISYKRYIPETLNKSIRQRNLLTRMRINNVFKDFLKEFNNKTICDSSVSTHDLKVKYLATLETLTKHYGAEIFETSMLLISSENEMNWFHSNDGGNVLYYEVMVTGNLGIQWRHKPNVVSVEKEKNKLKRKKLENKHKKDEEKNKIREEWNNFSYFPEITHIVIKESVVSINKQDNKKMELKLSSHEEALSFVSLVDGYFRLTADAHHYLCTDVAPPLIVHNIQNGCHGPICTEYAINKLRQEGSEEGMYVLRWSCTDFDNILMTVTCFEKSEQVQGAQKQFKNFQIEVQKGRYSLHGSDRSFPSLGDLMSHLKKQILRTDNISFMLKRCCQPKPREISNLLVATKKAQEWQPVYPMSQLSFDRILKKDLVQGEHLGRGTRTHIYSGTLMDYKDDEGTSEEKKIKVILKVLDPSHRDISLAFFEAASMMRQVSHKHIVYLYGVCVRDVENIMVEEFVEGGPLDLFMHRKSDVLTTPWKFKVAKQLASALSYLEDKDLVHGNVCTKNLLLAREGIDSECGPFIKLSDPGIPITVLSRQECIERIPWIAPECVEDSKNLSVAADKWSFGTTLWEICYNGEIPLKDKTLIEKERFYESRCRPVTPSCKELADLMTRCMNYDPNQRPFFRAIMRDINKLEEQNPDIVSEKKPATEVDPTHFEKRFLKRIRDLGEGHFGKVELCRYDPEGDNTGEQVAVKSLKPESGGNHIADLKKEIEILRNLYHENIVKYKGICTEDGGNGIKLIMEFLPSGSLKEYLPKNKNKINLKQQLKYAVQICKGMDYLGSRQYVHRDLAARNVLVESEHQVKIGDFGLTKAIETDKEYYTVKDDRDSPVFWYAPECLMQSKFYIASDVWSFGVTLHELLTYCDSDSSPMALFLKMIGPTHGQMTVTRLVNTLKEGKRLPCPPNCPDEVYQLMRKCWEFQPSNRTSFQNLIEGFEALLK
T2 sequence (P29597 whole entry): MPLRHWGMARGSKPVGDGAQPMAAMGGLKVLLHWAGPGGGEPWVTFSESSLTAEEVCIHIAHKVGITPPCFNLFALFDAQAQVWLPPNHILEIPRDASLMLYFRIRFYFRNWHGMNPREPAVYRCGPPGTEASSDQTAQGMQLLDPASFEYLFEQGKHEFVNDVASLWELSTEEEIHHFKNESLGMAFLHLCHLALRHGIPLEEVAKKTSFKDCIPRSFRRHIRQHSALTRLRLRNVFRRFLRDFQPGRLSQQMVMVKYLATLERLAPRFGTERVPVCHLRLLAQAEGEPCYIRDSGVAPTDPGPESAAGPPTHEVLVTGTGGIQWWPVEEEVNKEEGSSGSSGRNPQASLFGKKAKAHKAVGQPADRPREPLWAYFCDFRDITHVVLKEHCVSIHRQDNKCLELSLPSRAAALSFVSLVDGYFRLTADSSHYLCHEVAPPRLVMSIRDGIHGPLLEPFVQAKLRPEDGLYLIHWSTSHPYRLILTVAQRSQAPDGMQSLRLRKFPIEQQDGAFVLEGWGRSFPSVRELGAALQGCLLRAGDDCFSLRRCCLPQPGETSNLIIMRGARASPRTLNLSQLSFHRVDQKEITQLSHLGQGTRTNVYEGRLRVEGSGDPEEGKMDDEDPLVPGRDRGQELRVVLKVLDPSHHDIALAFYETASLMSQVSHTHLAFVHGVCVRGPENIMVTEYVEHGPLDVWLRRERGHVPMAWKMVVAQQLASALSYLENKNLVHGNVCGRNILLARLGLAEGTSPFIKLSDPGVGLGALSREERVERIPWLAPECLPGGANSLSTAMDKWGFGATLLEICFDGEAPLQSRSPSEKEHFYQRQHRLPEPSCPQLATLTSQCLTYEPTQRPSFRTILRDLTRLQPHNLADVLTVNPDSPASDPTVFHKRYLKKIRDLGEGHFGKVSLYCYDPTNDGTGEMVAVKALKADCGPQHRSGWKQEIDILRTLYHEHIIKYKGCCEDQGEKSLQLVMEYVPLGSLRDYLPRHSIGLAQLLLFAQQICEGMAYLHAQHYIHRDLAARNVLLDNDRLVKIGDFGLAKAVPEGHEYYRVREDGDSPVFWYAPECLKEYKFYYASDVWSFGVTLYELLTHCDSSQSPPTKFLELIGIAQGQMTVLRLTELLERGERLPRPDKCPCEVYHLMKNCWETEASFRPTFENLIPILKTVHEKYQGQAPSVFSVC

As to `COCCn1nc(C(=O)NCCC(F)(F)F)c2c1CCN(c1ncnc3[nH]ccc13)C2` [Compound 104], the IC50 in the assay on Hut-78 cells (setting [1]) was 0.5 to 1 µM; against JAK3, less than 100 nM; on TYK2, more than 2000 nM; on JAK2, 100 to 500 nM; at JAK1, 100 to 500 nM.
With `O=C(NCCC(F)(F)F)c1nn(Cc2ccncc2)c2c1CN(c1ncnc3[nH]ccc13)CC2` [Compound 105], the IC50 in the assay on Hut-78 cells (setting [1]) is 0.5 to 1 µM; on JAK3 it was less than 100 nM; at TYK2, more than 2000 nM; against JAK2, 100 to 500 nM; against JAK1, 100 to 500 nM.
Regarding `O=C(NCCC(F)(F)F)c1n[nH]c2c1CN(c1ncnc3[nH]ccc13)CC2` [Compound 109], the IC50 was 1 to 10 µM in the assay with Hut-78 cells (setting [1]); less than 100 nM on JAK3; 500 to 2000 nM on TYK2; 100 to 500 nM against JAK2; less than 100 nM at JAK1.
Turning to `O=C(NCCC(F)(F)F)c1noc2c1CN(c1ncnc3[nH]ccc13)CC2` [Compound 110], the half-maximal inhibitory concentration (IC50) with Hut-78 cells (setting [1]) was 0.5 to 1 µM; against JAK3 it was less than 100 nM; at TYK2, 100 to 500 nM; against JAK2, less than 100 nM; against JAK1 it was less than 100 nM.
On to `N#Cc1cn(C(=O)NCCC(F)(F)F)c2c1CCN(c1ncnc3[nH]ccc13)C2` [Compound 143], for which the IC50 in the assay with Hut-78 cells (setting [1]) is 1 to 10 µM; against JAK3, less than 100 nM; on TYK2 it was 500 to 2000 nM; against JAK2, 100 to 500 nM; against JAK1, 100 to 500 nM.
As for `O=C(NCC(F)(F)F)c1noc2c1CN(c1ncnc3[nH]ccc13)CC2` [Compound 178], the IC50 in the assay on Hut-78 cells (HuT78, read-out: Hut-78 cells IC50 (μM)) is 0.5 to 1 µM; against JAK3 it was less than 100 nM; on TYK2, 500 to 2000 nM; against JAK2, less than 100 nM; against JAK1, less than 100 nM.
For the molecule `O=C(NCC1CC1(F)F)c1noc2c1CN(c1ncnc3[nH]ccc13)CC2` (stereo not shown) [Compound 179], the IC50 in the assay with Hut-78 cells (setting [1]) was 1 to 10 µM; at JAK3, less than 100 nM; at TYK2, more than 2000 nM; on JAK2, 100 to 500 nM; on JAK1 it was 100 to 500 nM.
`O=C(NC1CC1C(F)(F)F)c1noc2c1CN(c1ncnc3[nH]ccc13)CC2` (stereo not shown) [Compound 182]: the IC50 in the assay with Hut-78 cells (setting [1]) was less than 0.5 µM; against JAK3, less than 100 nM; on TYK2, 500 to 2000 nM; at JAK2 it was 100 to 500 nM; against JAK1 it was less than 100 nM.
`O=C(NC(CO)CC(F)(F)F)c1noc2c1CN(c1ncnc3[nH]ccc13)CC2` (stereo not shown) [Compound 186]: the IC50 in the assay on Hut-78 cells (setting [1]) is less than 0.5 µM; on JAK3, less than 100 nM; at TYK2 it was 100 to 500 nM; against JAK2 it was less than 100 nM; against JAK1, less than 100 nM.
As to `O=C(NCC(O)C(F)(F)F)c1noc2c1CN(c1ncnc3[nH]ccc13)CC2` (stereo not shown) [Compound 190], the IC50 with Hut-78 cells (setting [1]) is less than 0.5 µM; against JAK3 it was less than 100 nM; on TYK2, 100 to 500 nM; on JAK2, less than 100 nM; at JAK1, less than 100 nM.
On to `O=C(NCCC(F)(F)F)c1noc2c1CN(c1ncnc3[nH]ccc13)CC21CC1` [Compound 192], for which the half-maximal inhibitory concentration (IC50) in the assay on Hut-78 cells (setting [1]) was 0.5 to 1 µM; at JAK3, less than 100 nM; on TYK2, more than 2000 nM; against JAK2, 100 to 500 nM; against JAK1, less than 100 nM.
Regarding `O=C(NCCC(F)(F)F)c1onc2c1CN(c1ncnc3[nH]ccc13)CC21CC1` [Compound 193], the IC50 was 0.5 to 1 µM with Hut-78 cells (setting [1]); less than 100 nM at JAK3; 500 to 2000 nM on TYK2; 100 to 500 nM against JAK2; 100 to 500 nM at JAK1.
Take `O=C(c1noc2c1CN(c1ncnc3[nH]ccc13)CC2)N1CC(C(F)(F)F)C1` [Compound 194]: the IC50 in the assay on Hut-78 cells (setting [1]) was less than 0.5 µM; on JAK3 it was less than 100 nM; at TYK2 it was 100 to 500 nM; against JAK2, less than 100 nM; on JAK1, less than 100 nM.
Take `O=C(NCC1CC(F)(F)C1)c1noc2c1CN(c1ncnc3[nH]ccc13)CC2` [Compound 198]: the IC50 in the assay on Hut-78 cells (setting [1]) was less than 0.5 µM; against JAK3, less than 100 nM; at TYK2, more than 2000 nM; against JAK2 it was 100 to 500 nM; against JAK1, less than 100 nM.
For the molecule `CC1(CNC(=O)c2noc3c2CN(c2ncnc4[nH]ccc24)CC3)CC(F)(F)C1` [Compound 199], the IC50 in the assay on Hut-78 cells (setting [1]) is less than 0.5 µM; against JAK3, less than 100 nM; on TYK2, 500 to 2000 nM; against JAK2, 100 to 500 nM; at JAK1, less than 100 nM.
In the case of `O=C(NC1CC(O)(C(F)(F)F)C1)c1noc2c1CN(c1ncnc3[nH]ccc13)CC2` (stereo not shown) [Compound 201], the IC50 in the assay with Hut-78 cells (setting [1]) was less than 0.5 µM; on JAK3, less than 100 nM; on TYK2 it was more than 2000 nM; at JAK2, 100 to 500 nM; against JAK1, less than 100 nM.
With `O=C(N[C@H]1C[C@@](O)(C(F)(F)F)C1)c1noc2c1CN(c1ncnc3[nH]ccc13)CC2` [Compound 202], the IC50 in the assay on Hut-78 cells (setting [1]) was less than 0.5 µM; against JAK3 it was less than 100 nM; at TYK2 it was 500 to 2000 nM; against JAK2, less than 100 nM; against JAK1, less than 100 nM.
